Here are results for 5 compounds from patent US8168651B2, “Protein kinase modulators” (Cylene Pharmaceuticals, Inc., priority 2008, dated 2012).

In one data set the target is Flt3 (Homo sapiens (Human), UniProt P36888). Particulars: cited from earlier work.
A short description of data set [1]: Pharmacokinetics after IV and PO dose in ICR mice. It is filed as in vivo. Particulars: for half-life: mouse, plasma. On the procedure: […] Blood samples were collected at predetermined times and the plasma separated. Plasma was separated from the blood samples collected at 5, 15 and 30 minutes and 1, 2, 4, 8 and 24 hours post-dose.
Drug levels were quantified by the LC/MS/MS method described below. Noncompartmental pharmacokinetic analysis was applied for intravenous administration. A linear trapezoidal rule was used to compute AUC(0-24). The terminal t1/2 and C0 were calculated using the last three and the first three data points, respectively
(§1) Bioanalysis was performed using a Quattro Micro LC/MS/MS instrument in the MRM detection mode, with an internal standard (IS). Briefly, 15 µL plasma samples were prepared for analysis using protein precipitation with 120 μL of acetonitrile. The supernatants were transferred into a 96 well plate and subjected to LC-MS/MS analysis using a Phenomenex Polar-RP HPLC column. The mobile phases were 10 mM NH4HCO3 in water (Solution-A) and 10 mM NH4HCO3 in methanol (Solution-B). […] Quantitation of the analytes was performed in the batch mode with two bracketing calibration curves according to the bioanalytical sample list.

In a further data set the test system is caspase-3 cell staining. The data set is described as follows: Caspase-3 staining as biomarker in treated tumors. Conditions: 60 mg/kg IV. In kind it is in vivo, mice. As to the method:
Caspase staining also was assessed as a biomarker for compound A1 treatment of tumors.

For data set [2], the system named is BX-PC3 (human pancreatic cancer cells) xenograft. In words: Tumor suppression in BX-PC3 xenograft mice. It is filed as in vivo.
The test system of data set [3] is A549 (human lung cancer cells) xenograft. The data set is described as follows: Tumor suppression in A549 xenograft mice. It is filed as in vivo. Particulars: oral administration. An excerpt:
(§2) Animals were handled under laminar-flow hoods.
The compound was delivered by oral administration for such determinations.

Data set [4] can be described thus: Pharmacokinetics after IV and PO dose in beagle dogs. Conditions: for Cmax / Vd / half-life / Tmax: plasma. In kind it is in vivo. As to the method: (§3) The pharmacokinetics properties of drugs were also investigated in SD rats and beagle dogs following an intravenous (IV) bolus and oral (PO) doses of drug using similar methods. Blood samples were collected at predetermined times and the plasma separated.
(§4) Drug levels were quantified by the LC/MS/MS method described below. Noncompartmental pharmacokinetic analysis was applied for intravenous administration. […] The terminal t1/2 and C0 were calculated using the last three and the first three data points, respectively
as §1

Data set [5] can be described thus: Distribution of compound in plasma and tumors of animals. It is filed as in vivo, mice. On the procedure:
The distribution of compound A1 in the plasma and tumors of animals was assessed.

The next data set relates to MCF-7 xenografts. In words: Tumor suppression in MCF-7 xenograft animals. It is filed as in vivo, NCr nu/nu mice. Particulars: oral 100 mg/kg. As to the method:
as §2
(§5) Gemzar™ administered at a dose of 80 mg/kg IP Q3D was used as a positive control.

The next data set deals with PC-3 xenografts. The data set is described as follows: Tumor suppression in PC-3 xenograft animals. In kind it is in vivo, NCr nu/nu mice. Conditions: oral 150 mg/kg. On the procedure: as §2, §5
Data set [6] is described as follows: Pharmacokinetics after IV and PO dose in SD rats. Particulars: for Tmax / half-life / Cmax / Vd: rat, plasma. In kind it is in vivo. As to the method:
as §3, §4, §1

For the next data set, the system named is MiaPaca xenografts. In words: Tumor suppression in MiaPaca xenograft mice. It is filed as in vivo, NCr nu/nu mice. As to the method: as §2
Tumor volume measurements (FIG. 3A) and body weight (FIG. 3B) were recorded on days 3, 6, 8, 10, 13 and 15.
as §5

A short description of data set [7]: Body weight of tumor-bearing xenograft animals. Conditions: BC-PC3 xenograft; IV or IP dosing, days 1-18. In kind it is in vivo, mice.
A short description of data set [8]: Tumor pharmacokinetic studies, IV QDx6. Conditions: 30 mg/kg IV QD×6. It is filed as in vivo, mice.
A further data set has as its system HUVEC cells. The data set is described as follows: Human endothelial tube formation assay (BD BioCoat Angiogenesis System). In kind it is cell-based. Conditions: 18 hrs.
Another data set has as its system MDA-MB-231 xenografts. In words: Tumor suppression in MDA-MB-231 xenograft animals. In kind it is in vivo, mice. Particulars: IV 30 and 60 mg/kg and oral 200 mg/kg.
Description: as §2

The test system of data set [9] is leukemic cells from AML patients. Conditions: cited from earlier work.
The next data set relates to MOLM-13 (AML) xenograft. Conditions: MOLM-13 (AML) xenograft model; cited from earlier work.
A further data set concerns MV-4-11 (AML) xenograft. Conditions: MV-4-11 (AML) xenograft model; cited from earlier work.
The mark [10] stands for this setting: dog, 0.8 mg/kg, IV 0.80 mg/kg, Beagle dogs.
Setting [11] is: dog, PO 3.80 mg/kg, Beagle dogs.
[12] abbreviates: Sprague-Dawley, IV 2.50 mg/kg, SD rats.
[13] abbreviates: Sprague-Dawley, PO 8.06 mg/kg, SD-Rats.

Structures are written as SMILES.

Chain of Flt3 (P36888 27-993): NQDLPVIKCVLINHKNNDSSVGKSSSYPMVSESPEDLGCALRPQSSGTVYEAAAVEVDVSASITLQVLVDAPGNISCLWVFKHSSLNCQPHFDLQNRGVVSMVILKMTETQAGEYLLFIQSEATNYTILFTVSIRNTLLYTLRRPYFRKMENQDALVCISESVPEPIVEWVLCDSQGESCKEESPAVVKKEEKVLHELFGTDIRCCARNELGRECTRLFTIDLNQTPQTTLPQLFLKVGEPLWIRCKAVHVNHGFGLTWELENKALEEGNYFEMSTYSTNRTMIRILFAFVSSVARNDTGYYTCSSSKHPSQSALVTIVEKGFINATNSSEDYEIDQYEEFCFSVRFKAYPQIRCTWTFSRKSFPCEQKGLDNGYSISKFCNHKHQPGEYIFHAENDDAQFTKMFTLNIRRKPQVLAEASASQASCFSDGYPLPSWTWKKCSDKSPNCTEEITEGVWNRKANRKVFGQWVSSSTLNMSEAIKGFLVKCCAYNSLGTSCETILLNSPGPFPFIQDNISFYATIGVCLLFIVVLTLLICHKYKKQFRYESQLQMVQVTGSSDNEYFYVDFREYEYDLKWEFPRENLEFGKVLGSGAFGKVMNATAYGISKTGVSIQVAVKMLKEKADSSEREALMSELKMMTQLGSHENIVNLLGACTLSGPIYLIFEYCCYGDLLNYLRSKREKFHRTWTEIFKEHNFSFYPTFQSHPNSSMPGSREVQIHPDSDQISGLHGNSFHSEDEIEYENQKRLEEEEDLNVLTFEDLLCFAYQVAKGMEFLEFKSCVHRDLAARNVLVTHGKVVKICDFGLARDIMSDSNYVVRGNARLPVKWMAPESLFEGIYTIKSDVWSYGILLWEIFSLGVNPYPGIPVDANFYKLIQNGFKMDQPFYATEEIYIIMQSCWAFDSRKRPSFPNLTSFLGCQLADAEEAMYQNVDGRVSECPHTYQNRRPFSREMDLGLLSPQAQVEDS

As for `C[C@]12O[C@H](C[C@]1(O)CO)n1c3ccccc3c3c4c(c5c6ccccc6n2c5c31)CNC4=O` [CEP-701], the “inhibition of Flt3” value on Flt3 is “potent inhibitor”.

By half-life is commonly meant how long it takes for the measured level to halve. The low end stands for rapid decline, the high end for slow decline. Usually Cmax stands for the maximum level reached in the sampled fluid or tissue. For orientation: Tmax means the time from dosing to the highest level. Consider `O=C(O)c1ccc2c(c1)nc(Nc1cccc(Cl)c1)c1ccncc12` [Compound A1], for which the CLs in data set [1] (IV 5 mg/kg) came to 25 mL/min/kg; in data set [4] (IV 0.80 mg/kg, Beagle dogs) it was 38.3 mL/min/kg. For the same compound, the Cp0-exp turned out to be 13201 ng/mL in [1] (IV 5 mg/kg) and 1406 ng/mL in data set [4] (IV 0.80 mg/kg, Beagle dogs). For the same compound, the Kel in [1] (IV 5 mg/kg) stood at 0.1586 h⁻¹; in [1] (PO 25 mg/kg), 0.1076 h⁻¹; in [4] (IV 0.80 mg/kg, Beagle dogs) it was 0.5546 h⁻¹. In addition, the “F(0-8 h)” value in data set [1] (PO 25 mg/kg) is 10.9%. In addition, the “F(0-inf h)” value in data set [1] (PO 25 mg/kg) turned out to be 18.7%. Further, the half-life in [1] (IV 5 mg/kg) was 4.4 h; in data set [1] (PO 25 mg/kg), 6.4 h; in data set [4] (setting [10]), 1.2 h; in [4] (setting [11]), 1.2 h; in [6] (Sprague-Dawley, po, […]), 4.5 h; in data set [6] (setting [12]), 9.8 h. For the same compound, the “caspase-3 cell staining levels versus untreated control cells” value in the data set with caspase-3 cell staining was “four-fold greater”. For the same compound, the tumor growth entry in data set [2] (BX-PC3 xenograft mice, oral administration) is on record as “significantly inhibited tumor growth”; in [3] it was “significantly inhibited tumor growth”; with MCF-7 xenografts, “significantly inhibited tumor growth”; with PC-3 xenografts, “significantly inhibited tumor growth”. The “AUC(0-12 h)” value in data set [4] (IV 0.80 mg/kg, Beagle dogs) is given as 349 ng · h · mI^−1. The “AUC(0-Inf)” value in data set [4] (IV 0.80 mg/kg, Beagle dogs) is given as 352 ng · h · mI^−1; in [4] (IV MC 0.80 mg/kg, Beagle dogs), 633 ng · h · mI^−1. Further, the values for the Cmax in data set [4] (setting [10]), in data set [4] (setting [11]) and in data set [6] (setting [12]) were 1040 ng/mL, 495 ng/mL and 21300 ng/mL, respectively. Further, the Vd is 4.1 L/kg in data set [4] (setting [10]) and 2.5 L/kg in [6] (setting [12]). Also, the Tmax in data set [4] (setting [11]) amounted to 0.5 h; in [6] (Sprague-Dawley, po, […]) it was 1 h. Moreover, the figures for the “compound identified in plasma” value in data set [5] (30 mg/kg IV), in data set [5] (60 mg/kg IV) and in [5] (200 mg/kg orally) were “about 6.8 micromolar”, around 2.2 µM and around 9.5 µM, respectively. Also, the “compound identified in tumors” value was “about 42.9 micromolar” in [5] (30 mg/kg IV), around 7.0 µM in data set [5] (60 mg/kg IV) and around 6.4 µM in data set [5] (200 mg/kg orally).

Regarding `C#Cc1cccc(Nc2nc3cc(C(=O)O)ccc3c3cncnc23)c1` [Compound A2], in the data set with MiaPaca xenografts (IV 50 and 60 mg/kg and IP 100 mg/kg), the tumor progression result was “significantly inhibited tumor progression”. In addition, the tumor progression result with MiaPaca xenografts (oral 100 mg/kg QD×8 and 200 mg/kg QD×6) is given as “significantly inhibited tumor progression”. Moreover, the “tumor progression (FIG. 4A)” value in data set [2] (BC-PC3 xenograft, 60 mg/kg QD IV, 50 mg/kg BID IV or 100 mg/kg BID IP) is “significantly inhibited tumor progression”. Besides, in data set [4] (IV 2.00 mg/kg, Dog), the “AUC(0-12 h)” value stood at 1414 ng · h · mI^−1, the “AUC(0-Inf)” value is 1437 ng · h · mI^−1, the CLs came to 23.3 mL/min/kg and the Cp0-exp came out at 3847 ng/mL. Besides, in data set [4] (IV 2.00 mg/kg, Dog), the Kel worked out at 0.1360 h⁻¹ and the tl/2 was 5.1 h. In data set [4] (beagle, IV 2.00 mg/kg, Dog), the Cmax was 3070 ng/mL and the Vd turned out to be 10.2 L/kg. Further, in data set [4] (beagle, PO 7.50 mg/kg, Dog), the Cmax is 1210 ng/mL and the Tmax stood at 1 h. Moreover, in [7], the “body weight (FIG. 4B)” value is “not significantly altering body weight”. In data set [8], the “half life change on repeated dosing” value is listed as “about doubles”. The “concentration range inhibiting tube formation” value in the data set on HUVEC cells lay within 1 to 5 µM. In data set [6] (IV 1.56 mg/kg, SD Rats), the “AUC(0-12 h)” value came to 39194 ng · h · mI^−1, the “AUC(0-Inf)” value was determined as 36659 ng · h · mI^−1, the CLs stood at 1.7 mL/min/kg and the Cp0-exp was determined as 47935 ng/mL. Besides, in data set [6] (IV 1.56 mg/kg, SD Rats), the Kel worked out at 0.1215 h⁻¹, the tl/2 was 5.7 h and the Vd amounted to 0.6 L/kg. In data set [6] (PO 8.06 mg/kg, SD-Rats), the “AUC(0-12 h)” value is reported as 73945 ng · h · mI^−1, the “AUC(0-Inf)” value worked out at 80286 ng · h · mI^−1, the “F(0-8 h)” value stood at 31.2% and the “F(0-12 h)” value is 37.7%. In data set [6] (PO 8.06 mg/kg, SD-Rats), the “F(0-Inf)” value stood at 43.8%, the Kel came out at 0.1077 h⁻¹ and the tl/2 is 6.4 h. For the same compound, in data set [6] (Sprague-Dawley, IV 1.56 mg/kg, SD Rats), the Cmax amounted to 34300 ng/mL. Further, in data set [6] (setting [13]), the Cmax was 6670 ng/mL and the Tmax turned out to be 2 h. In addition, the tumor progression result in the data set on MDA-MB-231 xenografts is “significantly inhibited tumor progression”.

Take `CN(C)C[C@@H]1CCn2cc(c3ccccc32)C2=C(C(=O)NC2=O)c2cn(c3ccccc23)CCO1` [Ly5333′531]: in data set [9], the “cell growth and cell death” value is “suppressed cell growth and induced cell death”.

With `CN1CCC(CNc2ccc3ncc(-c4cccc(OC(F)(F)F)c4)n3n2)CC1` [SGI-1776], the tumor regression result in the data set on MOLM-13 (AML) xenograft and with MV-4-11 (AML) xenograft was “significant tumor regression” each time.
